Assay results as given in ChEMBL document CHEMBL1201862, “PubChem BioAssay data set” (2004).
Several values for one entry are separate records, joined by “and”; a condition that tells them apart may be missing. Equal entries are not always repeated.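 How tested: cells in 96-well plates exposed to compound for 48 hours at five concentrations. GI50 = concentration required for 50% inhibition of growth.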 Activity calls are given as the source filed them. Cut-off read from the data, not from the text of the source: active = GI50 up to about 1.1 µM and inactive = higher.

What was measured:
Test in all cases: NCI anticancer screen, dose series, 48 h
HL-60 = system: HL-60
UO-31 = system: UO-31
ACHN = system: ACHN
OVCAR-3 = system: OVCAR-3
RXF 393 = system: RXF 393
SK-OV-3 = system: SK-OV-3
SF-268 = system: SF-268
RPMI-8226 = system: RPMI-8226
HCC 2998 = system: HCC 2998
CAKI-1 = system: CAKI-1
Malme-3M = system: Malme-3M
OVCAR-4 = system: OVCAR-4
LOX IMVI = system: LOX IMVI
IGROV-1 = system: IGROV-1
EKVX = system: EKVX
HCT-116 = system: HCT-116
T47D = system: T47D
SN12C = system: SN12C
NCI-H226 = system: NCI-H226

Measured: GI50

COC(=O)/C=C/c1ccc2c(c1)CCC2
inactive: HL-60 27.5 µM | UO-31 45 µM | ACHN 23.7 µM | OVCAR-3 17.7 µM | RXF 393 21 µM | SK-OV-3 > 100 µM | SF-268 42.9 µM | RPMI-8226 74.5 µM | HCC 2998 > 100 µM | CAKI-1 17.4 µM | Malme-3M 66.5 µM | OVCAR-4 74.3 µM | LOX IMVI > 100 µM | IGROV-1 36.5 µM | EKVX 82.6 µM | HCT-116 22.3 µM | T47D 11.3 µM

CCC(C)NC1=C(NC(C)=O)C(=O)c2ccccc2C1=O (stereo not drawn)
inactive: HL-60 17.5 µM | UO-31 > 75 µM | ACHN > 75 µM | OVCAR-3 40.6 µM | RXF 393 > 75 µM | SK-OV-3 > 75 µM | SF-268 > 75 µM | RPMI-8226 13.4 µM | HCC 2998 > 75 µM | CAKI-1 > 75 µM | SN12C > 75 µM | Malme-3M > 75 µM | NCI-H226 > 75 µM | OVCAR-4 > 75 µM | LOX IMVI 15.6 µM | IGROV-1 > 75 µM | EKVX > 75 µM | HCT-116 > 75 µM

Cc1ccc(/C(Cl)=C/C=C(C#N)C#N)cc1
inactive: HL-60 2 µM | UO-31 4.58 µM | ACHN 2.45 µM | OVCAR-3 1.93 µM | RXF 393 2.61 µM | SK-OV-3 5.78 µM | SF-268 5.9 µM | RPMI-8226 2.35 µM | CAKI-1 3.64 µM | SN12C 3.72 µM | Malme-3M 3.85 µM | NCI-H226 4.39 µM | OVCAR-4 3.22 µM | LOX IMVI 1.17 µM | IGROV-1 3.59 µM | EKVX 10.1 µM | HCT-116 1.83 µM | T47D 4.23 µM

Cc1ccc2nc(-c3ccc(-c4nc5ccc(C)cc5o4)c(O)c3)oc2c1
inactive: HL-60 > 100 µM | UO-31 > 100 µM | ACHN > 100 µM | SK-OV-3 > 100 µM | SF-268 > 100 µM | RPMI-8226 > 100 µM | HCC 2998 > 100 µM | SN12C > 100 µM | NCI-H226 > 100 µM | LOX IMVI > 100 µM | HCT-116 > 100 µM | T47D > 100 µM

CC(C)(c1ccccc1)c1ccc(Oc2ccc(C#N)c(C#N)c2)cc1
inactive: HL-60 20.5 µM | UO-31 4.48 µM | ACHN 33.8 µM | OVCAR-3 > 10 µM | RXF 393 92.9 µM | SK-OV-3 > 10 µM | SF-268 43.5 µM | RPMI-8226 10.2 µM | HCC 2998 > 10 µM | CAKI-1 > 10 µM | SN12C > 10 µM | Malme-3M > 10 µM | NCI-H226 > 10 µM | OVCAR-4 7.82 µM | LOX IMVI > 10 µM | IGROV-1 > 10 µM | EKVX 46.1 µM | HCT-116 36.6 µM

Cc1ccc(/C=N/NS(=O)(=O)c2ccccc2)c(C)c1
inactive: HL-60 > 100 µM | UO-31 > 100 µM | ACHN > 100 µM | OVCAR-3 > 100 µM | RXF 393 > 100 µM | SK-OV-3 > 100 µM | SF-268 > 100 µM | RPMI-8226 > 100 µM | HCC 2998 > 100 µM | CAKI-1 > 100 µM | SN12C > 100 µM | Malme-3M > 100 µM | NCI-H226 > 100 µM | OVCAR-4 > 100 µM | LOX IMVI > 100 µM | IGROV-1 > 100 µM | EKVX > 100 µM | HCT-116 > 100 µM

CCOP(=O)(C=C=C(C)C)OCC
inactive: HL-60 94.6 µM | ACHN > 100 µM | OVCAR-3 > 100 µM | RXF 393 > 100 µM | SK-OV-3 > 100 µM | SF-268 > 100 µM | HCC 2998 > 100 µM | CAKI-1 > 100 µM | SN12C > 100 µM | Malme-3M > 100 µM | NCI-H226 > 100 µM | OVCAR-4 > 100 µM | LOX IMVI > 100 µM | IGROV-1 > 100 µM | EKVX > 100 µM | HCT-116 > 100 µM | T47D > 100 µM

CC1=C(C)CC2(C=C(C(C)(C)C)C(=O)C(C(C)(C)C)=C2)SC1
inactive: HL-60 18.3 µM | UO-31 15.7 µM | OVCAR-3 17.9 µM | RXF 393 18.5 µM | SK-OV-3 25 µM | SF-268 19.5 µM | RPMI-8226 12.8 µM | CAKI-1 21.5 µM | SN12C 17.4 µM | Malme-3M 14.2 µM | NCI-H226 17 µM | OVCAR-4 26.7 µM | LOX IMVI 17.4 µM | IGROV-1 13.9 µM | EKVX 18.6 µM | HCT-116 28.4 µM | T47D 27.9 µM

O=S(=O)(O)c1cc(O)c2c(O)c(/N=N/c3ccc(/C=C/c4ccc(/N=N/c5c(S(=O)(=O)O)cc6cc(S(=O)(=O)O)cc(O)c6c5O)cc4S(=O)(=O)O)c(S(=O)(=O)O)c3)c(S(=O)(=O)O)cc2c1
inactive: HL-60 > 100 µM | UO-31 > 100 µM | ACHN > 100 µM | OVCAR-3 > 100 µM | RXF 393 > 100 µM | SK-OV-3 > 100 µM | SF-268 > 100 µM | RPMI-8226 > 100 µM | HCC 2998 > 100 µM | CAKI-1 > 100 µM | SN12C > 100 µM | Malme-3M > 100 µM | NCI-H226 > 100 µM | OVCAR-4 > 100 µM | LOX IMVI > 100 µM | IGROV-1 > 100 µM | EKVX > 100 µM | HCT-116 > 100 µM

O=C1c2ccccc2-c2c3c(cc4ccnc1c24)OCO3 [LIRIODENINE]
inactive: HL-60 3 µM | UO-31 4.94 µM and 3.42 µM | ACHN 3.94 µM and 4.32 µM | OVCAR-3 9.25 µM and 10.5 µM | RXF 393 5.55 µM and 5.06 µM | SK-OV-3 22.2 µM and 17.9 µM | SF-268 6.14 µM and 6.03 µM | RPMI-8226 3.2 µM and 3.48 µM | HCC 2998 4.51 µM | CAKI-1 3.63 µM and 3.77 µM | SN12C 4.98 µM and 5.82 µM | Malme-3M 3.59 µM and 3.03 µM | NCI-H226 4.69 µM and 5.27 µM | OVCAR-4 5.07 µM and 8.24 µM | LOX IMVI 3.77 µM and 4.22 µM | IGROV-1 5.97 µM and 3.9 µM | EKVX 3.46 µM and 5.15 µM | HCT-116 3.29 µM and 3.17 µM

Cc1occc(=O)c1O [MALTOL]
inactive: HL-60 > 100 µM | UO-31 > 100 µM | ACHN > 100 µM | OVCAR-3 > 100 µM | SF-268 > 100 µM | RPMI-8226 > 100 µM | HCC 2998 > 100 µM | CAKI-1 > 100 µM | SN12C 5 µM | Malme-3M > 100 µM | NCI-H226 > 100 µM | OVCAR-4 > 100 µM | LOX IMVI > 100 µM | IGROV-1 > 100 µM | EKVX > 100 µM | HCT-116 > 100 µM | T47D > 100 µM
